Assay results taken from US20220281848A1, “PYRAZOLE-SUBSTITUTED PYRROLIDINONES AS HERBICIDES” (FMC Corporation, priority 2019, published 2022).

Experiments:
Assay type in all cases: in vivo
maize = test: Test D pre-emergence, maize seed treated with a herbicide safener; conditions: preemergent; for damage to plant (100=total damage to plant; 0=no damage to plant), ZEAMX: 20 DAA; for ZEAMX damage to plant (100=total damage; 0=no damage): safener-treated seed
Description: (§1) A formulation containing 50 g/L of the test chemical was prepared by dissolving the active ingredient in a mixture of organic solvents and emulsifier, details of which are provided in the table. This formulation was then mixed with a small, variable amount of acetone to aid dissolution, before addition of a 0.2% v/v aqueous solution of an adjuvant, as the aqueous diluent, to form an aqueous spray solution which contains a predetermined concentration of the active ingredient.
(§2) This aqueous spray solution was then sprayed onto plants including maize and wheat that had been seed treated with a herbicide safener, after one day's cultivation (for pre-emergence) or after about 12 days' cultivation (for post-emergence). The plants were grown from seeds sown in standard soil, placed in a glasshouse under controlled conditions (at 24/18° C. or 20/16° C., day/night; 16 h light; 65% humidity). After spray application the plants were then grown in a glasshouse under the same conditions and watered twice daily. After 15 d for post-emergence and 20 DAA for pre-emergence the test was evaluated (100=total damage to plant; 0=no damage to plant).

corn (Zea mays, ZEAMX) = test: Test A pre-emergence, corn; conditions: after 13 d
In short: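 Seeds sown in pots of standard soil and sprayed one day later, pre-emergence, at 15.625, 62.5 or 250 g/ha in acetone/water (50:50) with 0.5% Tween 20. Grown in glasshouse at 24/16 °C, 14 h light, 65% humidity. Damage scored after 13 d (0 none, 100 total).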

[1] = tested on: redroot pigweed (Amaranthus retroflexus, AMARE); test: Test A post-emergence, redroot pigweed; conditions: after 13 d
In short: (§3)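 Visual damage at 13 d after treatment, rated from 0 (no damage) to 100 (total damage). Eight-day-old pot-grown plants had been sprayed with 15.625, 62.5 or 250 g/ha of compound in aqueous acetone (50:50) containing 0.5% Tween 20.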

[2] = tested on: barnyardgrass (Echinochloa crus-galli, ECHCG); test: Test A post-emergence, barnyardgrass; conditions: after 13 d
In short: as §3

[3] = tested on: velvetleaf (Abutilon theophrasti, ABUTH); test: Test A post-emergence, velvetleaf; conditions: after 13 d
In short: as §3

wheat = test: Test D post-emergence, wheat seed treated with a herbicide safener; conditions: "Cereals" Postemergent
Description: as §1, §2

Row | SMILES | damage to plant (100=total damage to plant; 0=no damage to plant), ZEAMX (maize; rate 15) | damage to plant (100=total damage to plant; 0=no damage to plant), ZEAMX (maize; rate 30) | damage to plant (100=total damage to plant; 0=no damage to plant), ZEAMX (maize; rate 60) | damage to plant (100=total damage to plant; 0=no damage to plant), ZEAMX (maize; rate 130) | damage to plant (100=total damage to plant; 0=no damage to plant), ZEAMX (maize; rate 250) | damage to plant (100=total damage to plant; 0=no damage to plant), ZEAMX (maize; rate 500) | damage to plant (100=total damage; 0=no damage) ZEAMX (corn (Zea mays, ZEAMX); Pre-Emergence at 15.625 g/ha) | damage to plant (100=total damage; 0=no damage) ZEAMX (corn (Zea mays, ZEAMX); Pre-Emergence at 62.5 g/ha) | damage to plant (100=total damage; 0=no damage) ZEAMX (corn (Zea mays, ZEAMX); Pre-Emergence at 250 g/ha) | damage to plant (100=total damage; 0=no damage) AMARE ([1]; Post-Emergence at 15.625 g/ha) | damage to plant (100=total damage; 0=no damage) AMARE ([1]; Post-Emergence at 62.5 g/ha) | damage to plant (100=total damage; 0=no damage) AMARE ([1]; Post-Emergence at 250 g/ha) | damage to plant (100=total damage; 0=no damage) ECHCG ([2]; Post-Emergence at 15.625 g/ha) | damage to plant (100=total damage; 0=no damage) ECHCG ([2]; Post-Emergence at 62.5 g/ha) | damage to plant (100=total damage; 0=no damage) ECHCG ([2]; Post-Emergence at 250 g/ha) | damage to plant (100=total damage; 0=no damage) ABUTH ([3]; Post-Emergence at 15.625 g/ha) | damage to plant (100=total damage; 0=no damage) ABUTH ([3]; Post-Emergence at 62.5 g/ha) | damage to plant (100=total damage; 0=no damage) ABUTH ([3]; Post-Emergence at 250 g/ha) | further results
1 | CN1CC(c2cc(C(F)(F)F)n(C)n2)C(C(=O)Nc2cccc(F)c2F)C1=O (racemic) [Compound 3] | 0 | 0 | 0 | 0 | 0 | 0 | 0 | 60 | 90 | 0 | 10 | 20 | 90 | 90 | 90 | 0 | 0 | 0 | TRZAW damage rating (100=total damage to plant; 0=no damage to plant) (wheat; Rates 130, evaluated after 15 d): 0; TRZAW damage rating (100=total damage to plant; 0=no damage to plant) (wheat; Rates 250, evaluated after 15 d): 0; TRZAW damage rating (100=total damage to plant; 0=no damage to plant) (wheat; Rates 500, evaluated after 15 d): 50
2 | CN1CC(c2cc(C(F)(F)F)n(C)n2)C(C(=O)Nc2ccccc2F)C1=O (racemic) [Compound 9] | 0 | 0 | 0 | 0 | 0 | 0 | 50 | 0 | 20 | 0 | 0 | 0 | 60 | 90 | 90 | 0 | 0 | 0 | 
3 | CN1CC(c2cnn(C)c2C(F)(F)F)C(C(=O)Nc2cccc(F)c2F)C1=O (racemic) [Compound 25] | 0 | 0 | 0 | 0 | 0 | 0 | 0 | 0 | 20 | 0 | 0 | 0 | 30 | 70 | 80 | 0 | 0 | 0 | 
4 | CN1CC(c2cc(Cl)n(C)n2)C(C(=O)Nc2ccc(F)c(F)c2F)C1=O (racemic) [Compound 31] |  |  |  |  |  |  | 0 | 10 | 20 | 0 | 10 | 20 | 50 | 80 | 80 | 0 | 0 | 0 | ZEAMX damage to plant (100=total damage; 0=no damage) (maize; Rates 15, 20 DAA): 0; ZEAMX damage to plant (100=total damage; 0=no damage) (maize; Rates 30, 20 DAA): 0; ZEAMX damage to plant (100=total damage; 0=no damage) (maize; Rates 60, 20 DAA): 0; ZEAMX damage to plant (100=total damage; 0=no damage) (maize; Rates 130, 20 DAA): 0; ZEAMX damage to plant (100=total damage; 0=no damage) (maize; Rates 250, 20 DAA): 0; ZEAMX damage to plant (100=total damage; 0=no damage) (maize; Rates 500, 20 DAA): 0
5 | CCn1nc([C@H]2CN(C)C(=O)[C@@H]2C(=O)Nc2cccc(F)c2F)c2ccc(F)cc21 [Compound 4] | 0 | 0 | 0 | 0 | 0 | 10 | 0 | 40 | 80 | 0 | 20 | 20 | 80 | 90 | 90 | 0 | 0 | 20 | 
6 | CCn1nc([C@H]2CN(C)C(=O)[C@@H]2C(=O)Nc2cccc(F)c2F)c2c(F)cccc21 [Compound 7] | 0 | 0 | 0 | 0 | 0 | 10 | 20 | 30 | 90 | 0 | 0 | 0 | 60 | 80 | 80 | 0 | 0 | 0 | 
7 | CCn1nc([C@H]2CN(C)C(=O)[C@@H]2C(=O)Nc2cccc(F)c2F)c2cc(F)ccc21 [Compound 8] | 0 | 0 | 0 | 0 | 0 | 10 | 20 | 40 | 70 | 0 | 0 | 0 | 60 | 70 | 80 | 0 | 0 | 0 | 
